Drawing on patent US7834023B2 (Portola Pharmaceuticals, Inc., priority 2006, dated 2010), this text covers IC50 for 19 compounds.

For assay [1], the target named is T1, P2Y12 receptor (Homo sapiens, UniProt Q9H244).
T1 construct: endogenous in cells; host or cells: human platelets (outdated from blood banks or fresh), apyrase-washed, whole
Briefly: platelet ADP receptor binding assay (ARB): inhibition of [3H]2-MeS-ADP binding to platelets. As to conditions: [3H]2-MeS-ADP binding to apyrase-washed human platelets. The method, boiled down:
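Apyrase-washed human platelets (1×10^8 per well) were preincubated 5 min with serial compound dilutions in Hepes-Tyrode's/0.1% BSA/0.6% DMSO, then incubated 15 min at room temperature with 1 nM [3H]2-MeS-ADP. Filter-bound radioactivity gave specific binding (nonspecific: 10 μM 2-MeS-ADP), and IC50s came from non-linear regression.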

The subject of assay [2] is human platelet-rich plasma (PRP). The assay is described as follows: PRP assay: inhibition of ADP-mediated platelet aggregation in vitro. The format is cell-based. The conditions noted are these: Homo sapiens, Platelet, ADP-induced aggregation. As for the experimental part: The effect of testing the compound according to the invention on ADP-induced human platelet aggregation was assessed in a 96-well microtiter assay (see generally the procedures in Jantzen, H. M. et al. (1999) Thromb. Hemost. 81:111-117) or standard cuvette light transmittance aggregometry using either human platelet-rich plasma (PRP) or human washed platelets.
For preparation of human platelet-rich plasma for aggregation assays, human venous blood was collected from healthy, drug-free volunteers into 0.38% sodium citrate (0.013 M, pH 7.0 final). Platelet-rich plasma (PRP) is prepared by centrifugation of whole blood at 160×g for 20 minutes at room temperature. The PRP layer is removed, transferred to a new tube, and the platelet count is adjusted, if necessary, to achieve a platelet concentration of ˜3×10^8 platelets/ml using platelet-poor plasma (PPP). PPP is prepared by centrifugation of the remaining blood sample (after removal of PRP) for 20 minutes at 800×g. This preparation of PRP can subsequently be used for aggregation assays in either a 96-well plate or standard cuvette aggregometry.
For cuvette light transmittance aggregation assays, serial dilutions (1:3) of test compounds were prepared in 100% DMSO in a 96 well V-bottom plate (final DMSO concentration in the cuvette was 0.6%). The test compound (3 μl of serial dilutions in DMSO) was preincubated with PRP for 30-45 seconds prior to initiation of aggregation reactions, which were performed in a ChronoLog aggregometer by addition of agonist (5 or 10 μM ADP) to 490 μL of PRP at 37° C. In some cases, light transmittance aggregometry was performed using 490 μL of washed platelets (prepared as described above) at 37° C., and aggregation was initiated by addition of 5 μM ADP and 0.5 mg/ml human fibrinogen (American Diagnostics, Inc., Greenwich, Conn.). The aggregation reaction is recorded for ˜5 min, and maximum extent of aggregation is determined by the difference in extent of aggregation at baseline, compared to the maximum aggregation that occurs during the five minute period of the assay. Inhibition of aggregation was calculated as the maximum aggregation observed in the presence of inhibitor, compared to that in the absence of inhibitor. IC50s were derived by non-linear regression analysis using the Prism software (GraphPad, San Diego, Calif.).
Inhibition of ADP-dependent aggregation was also determined in 96-well flat-bottom microtiter plates using a microtiter plate shaker and plate reader similar to the procedure described by Frantantoni et al., Am. J. Clin. Pathol. 94, 613 (1990). All steps are performed at room temperature. For 96-well plate aggregation using platelet-rich plasma (PRP), the total reaction volume of 0.2 ml/well includes 180 μl of PRP (˜3×10^8 platelets/ml, see above), 6 μl of either serial dilution of test compounds in 20% DMSO or buffer (for control wells), and 10 μl of 20×ADP agonist solution (100 μM). The OD of the samples is then determined at 450 nm using a microtiter plate reader (Softmax, Molecular Devices, Menlo Park, Calif.) resulting in the 0 minute reading. The plates are then agitated for 5 min on a microtiter plate shaker and the 5 minute reading is obtained in the plate reader. Aggregation is calculated from the decrease of OD at 450 nm at t=5 minutes compared to t=0 minutes and is expressed as % of the decrease in the ADP control samples after correcting for changes in the unaggregated control samples. IC50s were derived by non-linear regression analysis.

T1 sequence (Q9H244 whole entry): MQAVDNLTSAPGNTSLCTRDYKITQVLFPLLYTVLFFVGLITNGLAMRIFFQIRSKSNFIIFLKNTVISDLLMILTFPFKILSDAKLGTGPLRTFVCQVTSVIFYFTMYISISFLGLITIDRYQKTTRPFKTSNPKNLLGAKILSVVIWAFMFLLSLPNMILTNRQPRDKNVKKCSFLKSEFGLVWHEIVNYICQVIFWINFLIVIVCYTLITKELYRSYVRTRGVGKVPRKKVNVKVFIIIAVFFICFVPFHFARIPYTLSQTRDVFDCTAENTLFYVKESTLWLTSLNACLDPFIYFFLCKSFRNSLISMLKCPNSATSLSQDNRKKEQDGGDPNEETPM

Take `CNc1cc2[nH]c(=O)n(-c3ccc(C(=O)NC(C(=O)O)c4ccc(Cl)s4)c(C)c3)c(=O)c2cc1F` (centres unmarked) [Compound 41, 2-(5-chlorothiophen-2-yl)-2-(4-(6-fluoro-7-(methylamino)-2,4-dioxo-1,2-dihydroquinazolin-3(4H)-yl)-2-methylbenzamido)acetic acid]: the IC50 in assay [1] was 50 to 500 nM; in assay [2] it was 10000 to 30000 nM.
For `CNc1cc2c(cc1F)C(=O)N(c1ccc(C(=O)NC(c3nnn[nH]3)c3ccc(C)s3)cc1)CO2` (centres unmarked) [Compound 61, 4-(6-fluoro-7-(methylamino)-4-oxo-2H-benzo[e][1,3]oxazin-3(4H)-yl)-N-((5-methylthiophen-2-yl)(1H-tetrazol-5-yl)methyl)benzamide] the same measures were less than 50 nM and 10000 to 30000 nM.
For the compound `CNc1cc2ccn(-c3ccc(C(=O)NC(c4nnn[nH]4)c4ccc(Cl)s4)cc3)c(=O)c2cc1F` (centres unmarked) [Compound 91, N-((5-chlorothiophen-2-yl)(1H-tetrazol-5-yl)methyl)-4-(7-fluoro-6-(methylamino)-1-oxoisoquinolin-2(1H)-yl)benzamide], the IC50 in assay [1] was less than 50 nM; in assay [2], 10000 to 30000 nM.
As to `CNc1cc2c(cc1F)C(=O)N(c1ccc(C(=O)NC(c3noc(=O)[nH]3)c3ccc(Cl)s3)cc1)CO2` (centres unmarked) [Compound 71, N-((5-chlorothiophen-2-yl)(5-oxo-4,5-dihydro-1,2,4-oxadiazol-3-yl)methyl)-4-(6-fluoro-7-(methylamino)-4-oxo-2H-benzo[e][1,3]oxazin-3(4H)-yl)benzamide], the IC50 in assay [1] is less than 50 nM; in assay [2], 10000 to 30000 nM.
As to `CNc1cc2[nH]c(=O)n(-c3ccc(C(=O)NC(c4cccc(Cl)c4)c4nnn[nH]4)cc3)c(=O)c2cc1F` (centres unmarked) [Compound 11, N-((3-chlorophenyl)(1H-tetrazol-5-yl)methyl)-4-(6-fluoro-7-(methylamino)-2,4-dioxo-1,2-dihydroquinazolin-3(4H)-yl)benzamide], the IC50 in assay [1] was 50 to 500 nM; in assay [2] it was more than 30000 nM.
Taken in the same sequence, the figures for `CNc1cc2c(cc1F)C(=O)N(c1ccc(C(=O)NC(C(=O)O)c3cccc(Cl)c3)cc1)CO2` (centres unmarked) [Compound 81, 2-(3-chlorophenyl)-2-(4-(6-fluoro-7-(methylamino)-4-oxo-2H-benzo[e][1,3]oxazin-3(4H)-yl)benzamido)acetic acid] were 50 to 500 nM and more than 30000 nM.
Taken in the same sequence, the figures for `CNc1cc2[nH]c(=O)n(-c3ccc(C(=O)NC(c4noc(=O)[nH]4)c4ccc(Cl)s4)cc3)c(=O)c2cc1F` (centres unmarked) [Compound 21, N-((5-chlorothiophen-2-yl)(5-oxo-4,5-dihydro-1,2,4-oxadiazol-3-yl)methyl)-4-(6-fluoro-7-(methylamino)-2,4-dioxo-1,2-dihydroquinazolin-3(4H)-yl)benzamide] were less than 50 nM and less than 10000 nM.
For `CNc1cc2[nH]c(=O)n(-c3ccc(C(=O)NC(C(=O)O)c4ccc(Cl)s4)c(F)c3)c(=O)c2cc1F` (centres unmarked) [Compound 44, 2-(5-chlorothiophen-2-yl)-2-(2-fluoro-4-(6-fluoro-7-(methylamino)-2,4-dioxo-1,2-dihydroquinazolin-3(4H)-yl)benzamido)acetic acid] the same measures were 50 to 500 nM and 10000 to 30000 nM.
In the case of `CNc1cc2[nH]c(=O)n(-c3ccc(C(=O)NC(C(=O)OCCN4CCOCC4)c4ccc(Cl)s4)cc3)c(=O)c2cc1F` (centres unmarked) [Compound 35, 2-morpholinoethyl 2-(5-chlorothiophen-2-yl)-2-(4-(6-fluoro-7-(methylamino)-2,4-dioxo-1,2-dihydroquinazolin-3(4H)-yl)benzamido)acetate], the IC50 in assay [1] lay within 50 to 500 nM; in assay [2], 10000 to 30000 nM.
On to `CNc1cc2[nH]c(=O)n(-c3ccc(C(=O)NC(c4noc(=O)[nH]4)c4ccc(Cl)s4)cc3OC)c(=O)c2cc1F` (centres unmarked) [Compound 53, N-((5-chlorothiophen-2-yl)(5-oxo-4,5-dihydro-1,2,4-oxadiazol-3-yl)methyl)-4-(6-fluoro-7-(methylamino)-2,4-dioxo-1,2-dihydroquinazolin-3(4H)-yl)-3-methoxybenzamide], for which the figures for the IC50 in assay [1] and in assay [2] were 50 to 500 nM and more than 30000 nM, respectively.
Take `CNc1cc2c(cc1F)C(=O)N(c1ccc(C(=O)NC(C(=O)O)c3ccc(Cl)s3)cc1)CO2` (centres unmarked) [Compound 56, 2-(5-chlorothiophen-2-yl)-2-(4-(6-fluoro-7-(methylamino)-4-oxo-2H-benzo[e][1,3]oxazin-3(4H)-yl)benzamido)acetic acid]: the IC50 was less than 50 nM in assay [1] and 10000 to 30000 nM in assay [2].
On to `CNc1cc2c(cc1F)C(=O)N(c1ccc(C(=O)N[C@@H](C(=O)O)c3ccc(Cl)s3)cc1)CO2` [Compound 62, (S)-2-(5-chlorothiophen-2-yl)-2-(4-(6-fluoro-7-(methylamino)-4-oxo-2H-benzo[e][1,3]oxazin-3(4H)-yl)benzaamido)acetic acid], for which the IC50 is less than 50 nM in assay [1] and more than 30000 nM in assay [2].
Taken in the same sequence, the figures for `CNc1cc2c(cc1F)C(=O)N(c1ccc(C(=O)NC(c3nnn[nH]3)c3ccc(Cl)s3)cc1)CO2` (centres unmarked) [Compound 54, N-((5-chlorothiophen-2-yl)(1H-tetrazol-5-yl)methyl)-4-(6-fluoro-7-(methylamino)-4-oxo-2H-benzo[e][1,3]oxazin-3(4H)-yl)benzamide] were less than 50 nM and 10000 to 30000 nM.
With `CNc1cc2c(=O)n(-c3ccc(C(=O)NC(c4noc(=O)[nH]4)c4ccc(Cl)s4)cc3)c(=O)[nH]c2cc1F` (centres unmarked) [Compound 50, N-((5-chlorothiophen-2-yl)(5-oxo-4,5-dihydro-1,2,4-oxadiazol-3-yl)methyl)-4-(7-fluoro-6-(methylamino)-2,4-dioxo-1,2-dihydroquinazolin-3(4H)-yl)benzamide], the IC50 in assay [1] is 50 to 500 nM; in assay [2], more than 30000 nM.
Taken in the same sequence, the figures for `CNc1cc2c(cc1F)C(=O)N(c1ccc(C(=O)N(CC(=O)O)Cc3ccc(Cl)s3)cc1)CO2` [Compound 55] were 50 to 500 nM and more than 30000 nM.
`CNc1cc2[nH]c(=O)n(-c3ccc(C(=O)NC(C(=O)O)c4ccc(Cl)s4)cc3)c(=O)c2cc1F` (centres unmarked) [Compound 13, 2-(5-chlorothiophen-2-yl)-2-(4-(6-fluoro-7-(methylamino)-2,4-dioxo-1,2-dihydroquinazolin-3(4H)-yl)benzamido)acetic acid]: the IC50 in assay [1] was 50 to 500 nM; in assay [2] it was less than 10000 nM.
For `CNc1cc2[nH]c(=O)n(-c3ccc(C(=O)NC(C(N)=O)c4ccc(Cl)s4)cc3)c(=O)c2cc1F` (centres unmarked) [Compound 47, N-(2-amino-1-(5-chlorothiophen-2-yl)-2-oxoethyl)-4-(6-fluoro-7-(methylamino)-2,4-dioxo-1,2-dihydroquinazolin-3(4H)-yl)benzamide] the same measures were 50 to 500 nM and less than 10000 nM.
`CNc1cc2[nH]c(=O)n(-c3ccc(C(=O)N(CC(=O)O)Cc4ccc(Cl)s4)cc3)c(=O)c2cc1F` [Compound 6, 2-(N-((5-chlorothiophen-2-yl)methyl)-4-(6-fluoro-7-(methylamino)-2,4-dioxo-1,2-dihydroquinazolin-3(4H)-yl)benzamido)acetic acid]: the results for the IC50 in assay [1] and in assay [2] were 50 to 500 nM and more than 30000 nM, respectively.
In the case of `CNc1cc2c(cc1F)C(=O)N(c1ccc(C(=O)NC(c3noc(=S)[nH]3)c3ccc(Cl)s3)cc1)CO2` (centres unmarked) [Compound 75, N-((5-chlorothiophen-2-yl)(5-thioxo-4,5-dihydro-1,2,4-oxadiazol-3-yl)methyl)-4-(6-fluoro-7-(methylamino)-4-oxo-2H-benzo[e][1,3]oxazin-3(4H)-yl)benzamide], the IC50 in assay [1] was less than 50 nM; in assay [2] it was 10000 to 30000 nM.
